Measurements as given in patent US12116356B2, “N-heterocyclic five-membered ring-containing capsid protein assembly inhibitor, pharmaceutical composition thereof, and use thereof” (CHIA TAI TIANQING PHARMACEUTICAL GROUP CO., LTD., priority 2018, dated 2024).

What was measured:
[1] = Stability of human liver microsomes in vitro; format: in vitro ADME
Protocol: 300 μL of a final incubation system contains 30 μL of liver microsomes (protein concentration: 0.15 mg/mL), 30 μL NADPH+MgCl2, 3 μL substrate (formulated with acetonitrile), and 237 μL PBS buffer. Duplicate incubation systems of 0.3 mL each were formulated for each species. A total volume of 270 μL of a uniformly mixed solution of the substrate and the enzyme was formulated in each tube, the solution and NADPH were pre-incubated at 37° C. for 5 minutes, respectively. Then 30 μL of the mixed solution of NADPH+MgCl2 was added for reaction. 50 μL of the reaction solution was taken out at 0, 10, 30, and 60 mins, and the reaction was terminated with 300 μL of ice acetonitrile containing an internal standard.
Sample pre-treatment: To 50 μL of the incubated sample was added 300 μL of ice acetonitrile containing diazepam as an internal standard and then precipitated. After vortexing for 5 minutes, the sample was centrifugated (12000 rpm, 4° C.) for 10 minutes. 75 μL of the supernatant was pipetted into a 96-well plate, and then diluted with 75 μL ultrapure water and mixed uniformly. 0.5 μL of the resulting solution was injected and analyzed by LC-MS/MS.

[2] = In vivo pharmacokinetics (PK) study in rats; parameters: species or system SD rats
Protocol: SD rats, weighing 180˜220 g, were randomly divided into groups of three […] each after 3 to 5 days' acclimatization, and a series of the compounds were administered intragastrically to each group at a dose of 20 mg/kg.
The test animals (SD rats) were fasted for 12 hours before administration and fed 4 hours after the administration. They were free to access water before and after the experiment.
After the administration, about 0.2 mL of blood from the orbits was collected at 0 min, 15 min, 30 min, 1 h, 2 h, 4 h, 6 h, 8 h, 10 h, 24 h, 30 h, and 48 h. Within 30 minutes after anticoagulation with EDTA-K2, the plasma was separated by centrifugation at 4° C. and 4000 rpm for 10 minutes. Immediately after collecting all plasma, it was stored at −20° C. for testing.
50 μL of the plasma sample to be tested and standard curve sample were pipetted, and then thereto was added 500 μL of an acetonitrile solution containing an internal standard (diazepam 20 mg/mL). The resulting mixture was oscillated and mixed uniformly for 5 min, and then centrifugated at 12000 rpm for 10 min. 75 μL supernatant was pipetted, and 75 μL ultrapure water was added thereto for dilution, and mixed evenly. 1 μL of the resulting solution was pipetted for LC/MS/MS determination.

[3] = In vivo pharmacokinetic (PK) study in Beagle dog; parameters: species or system Beagle dogs
Protocol: Beagle dogs, weighing 9 to 11 kg, were randomly divided into two groups of 3 dogs each, compound 12 was given by intragastric administration to each group at a dose of 5 mg/kg.
The test animals (Beagle dogs) were fasted for 12 hours before the administration, and fed 4 hours after the administration. They were free to access water before and after the experiment.
After the intragastric administration, about 0.5 mL of whole blood was collected from the veins of the left forelimb in an EDTA-K2 anticoagulated vacuum blood collection tube at 0 min, 15 min, 30 min, 1 h, 2 h, 4 h, 6 h, 8 h, 10 h, 24 h, 48 h, and 72 h. Within 30 minutes after collection, the plasma was separated by centrifugation at 4° C. and 4000 rpm for 10 minutes. Immediately after collecting all plasma, it was stored at −20° C. for testing.
50 μL of the plasma sample to be tested and standard curve sample were pipetted, and then thereto was added 500 μL of an acetonitrile solution containing an internal standard (diazepam 20 mg/mL). The resulting mixture was oscillated and mixed uniformly for 5 min, and then centrifugated at 12000 rpm for 10 min, 75 μL of the supernatant was pipetted, and 75 μL of ultrapure water was added for dilution and mixed evenly. 1 μL of the resulting solution was pipetted for LC/MS/MS determination.

[4] = In vivo pharmacokinetics (PK) study in rats; parameters: species or system SD rats; conditions: rat
[5] = rat, plasma, SD rats, PO 20 mg/kg
[6] = plasma, Beagle dogs, PO 5 mg/kg

SMILES: Cc1c(C(=O)Nc2ccc(F)c(C#N)c2)c(C)n(C)c1C(=O)C(=O)N[C@@H](C)C(F)(F)F [Example 12]
- Remaining (%) at 60 min [1]: 78.8%
- F ([2]; SD rats, PO 20 mg/kg vs IV 5 mg/kg): 57%
- half-life ([2]; SD, rat, in vivo, po, 20 mg/kg): 3.65 h
- AUC(0-inf) [2, 5]: 62300 ng·h/mL
- Cmax [2, 5]: 5020 ng/mL
- AUC(0-t) ([2]; rat, plasma, SD rats, PO 20 mg/kg, read-out: AUC(0-48 h)): 62000 ng·h/mL
- half-life ([3]; Beagle, in vivo, po, 5 mg/kg): 105 h
- AUC(0-inf) [3, 6]: 162000 ng·h/mL
- Cmax [3, 6]: 1280 ng/mL
- Tmax [3, 6]: 1.67 h
- AUC(0-t) ([3]; plasma, Beagle dogs, PO 5 mg/kg, read-out: AUC(0-72 h)): 61900 ng·h/mL
- MRT last ([3]; plasma, Beagle dogs, PO 5 mg/kg, read-out: MRT(0-t)): 32.9 h
- half-life ([4]; SD, in vivo, iv, 5 mg/kg): 3.41 h
- AUC(0-inf) ([4]; plasma, SD rats, IV 5 mg/kg): 27100 ng·h/mL
- Cmax ([4]; plasma, SD rats, IV 5 mg/kg): 6270 ng/mL
- clearance ([4]; plasma, SD rats, IV 5 mg/kg): 3.1 mL/min/kg
- AUC(0-t) ([4]; plasma, SD rats, IV 5 mg/kg, read-out: AUC(0-48 h)): 27100 ng·h/mL
- Vd ([4]; plasma, SD rats, IV 5 mg/kg, read-out: Vz): 0.914 L/kg
